Marks after values point to notes of the source that are not given here.
Tests used:
Assay type in all cases: in vivo
Conditions in all cases: 100 = 100% disease control
Botrytis cinerea = test: Test C: tomato Botrytis on tomato seedlings, sprayed the day before inoculation, visual disease rating
Procedure, shortened: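 Disease ratings refer to tomato seedlings treated by run-off spraying with compound suspensions, mostly 200 ppm (500 g/ha equivalent) and in marked cases 40 ppm. Carrier: acetone/purified water 50/50 with 250 ppm polyhydric alcohol ester surfactant, after predissolving in acetone.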

Alternaria solani = test: Test D: tomato early blight, sprayed the day before inoculation, visual disease rating
Procedure, shortened: (§1)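 Acetone solution (3% of final volume) of each compound is suspended in 50/50 acetone/water with 250 ppm Trem® 014. Plants are sprayed to run-off at 200 ppm, equivalent to 500 g/ha, or at 40 ppm for starred values.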

Septoria nodorum = test: Test F: wheat glume blotch on wheat seedlings, sprayed the day before inoculation, visual disease rating
Procedure, shortened: as §1

Septoria tritici = test: Test G: wheat leaf blotch on wheat seedlings, sprayed the day before inoculation, visual disease rating
Procedure, shortened: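 Wheat seedlings were sprayed to run-off with test suspension (acetone/water plus surfactant), generally 200 ppm (≈500 g/ha), or 40 ppm where marked. Septoria tritici spores were inoculated the next day; plants were held 48 h at 24°C in saturated atmosphere, then 19 days at 20°C before visual disease rating.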

[1] = test system: Puccinia recondita f. sp. tritici; test: Test H: wheat leaf rust, test suspension sprayed after inoculation of wheat seedlings, visual disease rating
Procedure, shortened: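 Wheat seedlings inoculated with P. recondita spores, held 24 h saturated at 20 °C, then 2 days in growth chamber at 20 °C; compound suspension (acetone/water with Trem 014) sprayed to run-off afterwards. Rated visually; 200 ppm (≈500 g/ha) unless marked *, which denotes 40 ppm.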

[2] = test system: Puccinia recondita f. sp. tritici; test: Test I: wheat leaf rust on wheat seedlings, sprayed the day before inoculation, visual disease rating
Procedure, shortened: as §1

[3] = test system: Erysiphe graminis f. sp. tritici; test: Test J: wheat powdery mildew on wheat seedlings, sprayed the day before inoculation, visual disease rating
Procedure, shortened: as §1

[4] = 40 ppm (marked *), 0 = no control
[5] = 200 ppm, 0 = no control relative to controls

| SMILES | Test C disease control rating (Botrytis cinerea; [4]) | Test D disease control rating (Alternaria solani; [4]) | Test F disease control rating (Septoria nodorum; [4]) | Test G disease control rating (Septoria tritici; [4]) | Test H disease control rating [1, 4] | Test I disease control rating [2, 4] | Test J disease control rating [3, 4] | Test C disease control rating (Botrytis cinerea; [5]) [%] | Test D disease control rating (Alternaria solani; [5]) [%] | Test F disease control rating (Septoria nodorum; [5]) [%] | Test G disease control rating (Septoria tritici; [5]) [%] | Test H disease control rating [1, 5] [%] | Test I disease control rating [2, 5] [%] | Test J disease control rating [3, 5] [%] |
| --- | --- | --- | --- | --- | --- | --- | --- | --- | --- | --- | --- | --- | --- | --- |
| CCc1nc(C)n(-c2ccc(Cl)cc2)c1-c1c(F)cccc1F [compound 305] | 63* % | 0* % | 0* % | 23* % | 11* % | 0* % | 0* % |  |  |  |  |  |  |  |
| Fc1ccc(-n2c(Br)nc(Br)c2-c2ccc(Cl)cc2)c(Cl)c1 [compound 306] |  |  |  |  |  |  |  | 99 | 96 | 0 | 94 | 6 | 91 | 99 |
| Cc1nc(C)n(-c2ccc(F)cc2Cl)c1-c1ccc(Cl)cc1 [compound 307] |  |  |  |  |  |  |  | 100 | 99 | 0 | 97 | 11 | 97 | 99 |
| Cc1nc(C)n(-c2c(F)cc(F)cc2F)c1-c1ccc(Cl)cc1 [compound 308] | 99* % | 100* % | 0* % | 88* % | 11* % | 41* % | 0* % |  |  |  |  |  |  |  |
| COc1ccc(F)c(-c2c(Cl)nc(Cl)n2-c2ccc(Cl)cc2)c1F [compound 309] |  |  |  |  |  |  |  | 100 | 100 | 100 | 97 | 11 | 100 | 100 |
| COc1ccc(F)c(-c2c(Cl)nc(Cl)n2-c2ccc(C)cc2)c1F [compound 310] |  |  |  |  |  |  |  | 99 | 100 | 99 | 96 | 61 | 100 | 100 |
| COc1ccc(F)c(-c2c(Cl)nc(Br)n2-c2ccc(F)cc2)c1F [compound 314] |  |  |  |  |  |  |  | 99 | 100 | 100 | 93 | 32 | 100 | 100 |
| COc1ccc(F)c(-c2c(Cl)nc(C)n2-c2cccc(F)c2)c1F [compound 315] |  |  |  |  |  |  |  | 99 | 100 | 100 | 95 | 86 | 100 | 100 |
| COc1ccc(F)c(-c2c(Cl)nc(Br)n2-c2cccc(C)c2)c1F [compound 316] |  |  |  |  |  |  |  | 99 | 99 | 95 | 93 | 6 | 99 | 100 |
| COc1ccc(F)c(-c2c(Cl)nc(Br)n2-c2ccc(Cl)c(F)c2)c1F [compound 317] |  |  |  |  |  |  |  | 100 | 100 | 100 | 95 | 17 | 99 | 100 |
| Cc1ncn(-c2ccc(Cl)c(F)c2)c1-c1ccccc1F [compound 318] |  |  |  |  |  |  |  | 100 | 16 | 0 | 91 | 0 | 9 | 87 |
| Cc1ncn(-c2ccc(Cl)c(F)c2)c1-c1ccnc(F)c1 [compound 319] |  |  |  |  |  |  |  | 99 | 24 | 0 | 98 | 6 | 28 | 81 |
| Cc1ncn(-c2ccc(Cl)cn2)c1-c1c(F)cccc1F [compound 320] |  |  |  |  |  |  |  | 99 | 67 | 0 | 100 | 0 | 28 | 99 |
| Cc1nc(Cl)n(-c2ccc(Cl)cn2)c1-c1c(F)cccc1F [compound 321] |  |  |  |  |  |  |  | 100 | 100 | 100 | 100 | 83 | 100 | 100 |
| Fc1cc(-c2c(CCl)nc(Cl)n2-c2ccc(Cl)c(F)c2)ccn1 [compound 322] | 62* % | 0* % | 0* % | 0* % | 63* % | 28* % | 0* % |  |  |  |  |  |  |  |
| Cc1nc(Cl)n(-c2ccc(Cl)c(F)c2)c1-c1ccnc(F)c1 [compound 323] |  |  |  |  |  |  |  | 100 | 99 | 0 | 100 | 70 | 100 | 99 |
| Fc1ccc(-n2c(Cl)nc(Br)c2-c2ccc(Cl)cc2)c(Cl)c1 [compound 324] |  |  |  |  |  |  |  | 99 | 99 | 82 | 93 | 9 | 97 | 99 |
| Cc1nc(Br)n(-c2ccc(F)cc2Cl)c1-c1ccc(Cl)c(F)c1 [compound 325] |  |  |  |  |  |  |  | 94 | 91 | 51 | 96 | 0 | 97 | 99 |
| Fc1ccc(-n2c(Cl)nc(Br)c2-c2ccc(Cl)c(F)c2)c(Cl)c1 [compound 326] |  |  |  |  |  |  |  | 100 | 100 | 51 | 96 | 67 | 98 | 100 |
| Fc1cccc(F)c1-c1c(Cl)nc(Br)n1-c1ccc2ncccc2c1 [compound 327] | 99* % | 98* % | 0* % | 94* % | 0* % | 86* % | 0* % |  |  |  |  |  |  |  |
